According to a melting point compilation (Tetko et al.; mined from patent text by program, amines drawn as free bases though some values may be those of a salt):

Row | SMILES | melting point
1 | COc1c(Cl)nc(C(=O)O)c(Cl)c1N | 154 to 156 °C
2 | C=Cc1cc(C(C)NC(=O)C#Cc2ccc(C(C)(C)C)cc2)cc(F)c1NS(C)(=O)=O (configuration not stated) | 108 to 110 °C
3 | CC1(C)CCc2ncc([N+](=O)[O-])cc2C1 | 99 to 101 °C
4 | Cc1oc(-c2ccccc2)nc1COc1ccc2cc(C=CC=C3SC(=O)NC3=O)ccc2c1 | 267 to 268 °C
5 | COCCCCCCCCCCCC(N)=O | 83.9 to 85.6 °C
6 | COc1cccc2c(Oc3cc(-n4c(=O)cc(C(F)(F)F)n(C)c4=O)c(F)cc3C#N)cccc12 | 109 °C
7 | O=Cc1ccc(C(O)c2cccnc2)cc1 (configuration not stated) | 104 to 105 °C
8 | CC(C)NCC(=O)Nc1cccc2c1C(=O)c1c(NC(=O)CNC(C)C)cccc1C2=O | 196 to 197 °C
9 | CCOc1cc(-c2ncc3[nH]c4ccc(OCc5ccccc5)cc4c3c2COC)no1 | 139 to 140 °C
10 | CC(C)n1nc(-c2cc(C(=O)O)c(=O)[nH]c2-c2ccccc2)ccc1=O | 212 to 215 °C
11 | O=S(=O)(Nc1ccc2c(OCc3coc(-c4ccc(Cl)cc4)n3)cccc2c1)C(F)(F)F | 198 to 200 °C
12 | CC(COc1ccccc1)NC(=Nc1cccnc1)NC#N (configuration not stated) | 130 to 133 °C
13 | CNC(=O)[C@H](Cc1ccc(OCc2ccccc2)cc1)NC(=O)[C@H](CC(C)C)N[C@H](C)C(=O)OC | 65 to 68 °C
14 | COC(=O)c1c(C(F)F)nc(C(F)(F)F)c(N=COCC2CO2)c1CC(C)C (configuration not stated) | 41 to 43 °C
15 | O=c1[nH]nc(-c2ccccc2SCc2ccccc2)o1 | 169 to 172 °C
16 | COCCNC(=O)COC1c2ccccc2C(=O)N1c1ccc2ccc(OC)nc2n1 (configuration not stated) | 172 °C
17 | CC(C)(CO)CCCCC(O)CCCCC(C)(C)CO | 72 to 74 °C
18 | O=C1CCC(N2Cc3c(OCc4ccc(CN5CCC(O)(c6ccccc6)CC5)cc4)cccc3C2=O)C(=O)N1 (configuration not stated) | 140 to 142 °C
19 | CN1CNC(=S)N(c2ccc(C(F)(F)F)cc2)C1 | 163 to 165 °C
20 | Cc1cc(CCCCc2cc(C)c(O)c(C(C)(C)C)c2)cc(C(C)(C)C)c1O | 106 to 107 °C
21 | O=C(Cc1ccc([N+](=O)[O-])cc1C(=O)O)Nc1cccc(/C=C/c2nc(C3CCC3)cs2)c1 | 233 to 235 °C
22 | CCN1CCC(NC(=O)Nc2ccccc2CCc2cc(C(C)(C)C)c(O)c(C(C)(C)C)c2)CC1 | 182 to 184 °C
23 | Nc1ccc(N2CCC(N3CCOCC3)CC2)c(C(F)(F)F)c1 | 118 to 120 °C
24 | O=S(=O)(Nc1ccc2c(OCc3cccc(Br)c3)cccc2c1)C(F)(F)F | 113 to 115 °C

Row | SMILES | melting point
25 | Cc1ccc(S(=O)(=O)Cc2c(C(F)(F)F)nn(C)c2O)cc1 | 135 °C
26 | CN1C(=O)C(=CN2CCOCC2)N=C(c2ccccc2Cl)c2cc(F)ccc21 | 110 to 115 °C
27 | COc1ccc(OC)c(S(=O)(=O)n2c(CCC(=O)O)cc3nc(Cl)ccc32)c1 | 204 to 209 °C
28 | CS(=O)(=O)c1ccc(/C(=C\CC2CCCC2)C(=O)O)cc1 | 162 to 165 °C
29 | O=C(Nc1cccc2c3c(oc12)CCC=C3)c1c(Cl)cccc1Cl | 165 to 167 °C
30 | Cc1cc(Nc2c(C#N)cnc3cc(Br)ccc23)ccc1OCc1ccccn1 | 238 to 241 °C
31 | COc1ccc(OC)c(C2Nc3ccccc3S2)c1 (configuration not stated) | 96 to 99 °C
32 | Oc1c(C2CCCC2)cc(C2CCCC2)cc1C1CCCC1 | 104 °C
33 | COc1ccc(CCc2ccncc2NC(=O)NCc2ccccc2)cc1OC1CCCC1 | 152 to 154 °C
34 | [N-]=[N+]=N[C@@H]1CN2C(=O)N(c3cc(Cl)nc(Cl)c3)C(=O)[C@@]2(Cc2ccc(OC(F)(F)F)cc2)C1 | 140 °C
35 | Cc1nc2cnc3ccccc3c2s1 | 95.5 to 97.5 °C
36 | Cc1c(F)c(F)cc(C(N)=O)c1F | 105 to 108 °C
37 | O=C(O)C(O)N1C(=O)CCN1c1cccc(C(F)(F)F)c1 (configuration not stated) | 142 to 144 °C
38 | N#Cc1cc(Cc2ccccc2)ccc1N | 68 to 69 °C
39 | C=CC(=O)Oc1ccc(C(=O)c2ccccc2)cc1 | 44 to 46 °C
40 | O=C(SC1CCN(C(C(=O)C2CC2)c2ccccc2F)CC1)c1ccccc1 (configuration not stated) | 55 to 59 °C
41 | CC(O)CSC(=S)Nc1ccccn1 (configuration not stated) | 78 °C
42 | O=c1[nH]c2scc(C3CCCCC3)c2[nH]c1=O | > 270 °C
43 | O=C(NCc1ccc(Cl)cc1)c1cn(CCCOC2CCCCO2)c2c(F)cc(CO)cc2c1=O (configuration not stated) | 148 to 150 °C
44 | OC(CNc1nnc2n1CCCC2)COc1cccc(CN2CCCCC2)c1 (configuration not stated) | 141 to 142 °C
45 | COc1ccc(CNc2nnc(Cl)c3cc(Cl)ccc23)cc1Cl | 168 to 170 °C
46 | Cn1c(=O)ccc2ccc(N)cc21 | 268 to 269 °C
47 | O=S1(=O)NCN(CCF)c2cc(Cl)c(Cl)cc21 | 156 to 157 °C
48 | COc1cccc(-c2ccc3c(c2)C2(CCCCC2)C(=NOCc2ccccc2)N3)c1 | 101 to 104 °C

Row | SMILES | melting point
49 | CCOC(=O)C1=C(N2CCCCC2)N=C(C)C(C(=O)OCC)C1c1ccccc1C#N (configuration not stated) | 103 °C
50 | OC(c1ccc(F)cc1)(c1ccc(F)cc1)c1nccn1Cc1ccccc1 | 176 to 177 °C
51 | CCCCc1cc(C#N)ncc1C(=O)O | 267 to 268 °C
52 | N=C(Nc1cc(NC(=O)/C=C/c2ccccc2Cl)cc(C(F)(F)F)c1)c1cccs1 | 206 to 208 °C
53 | O=C(NCc1ccccn1)Nc1cc(-n2cc(-c3ccccc3)oc2=O)ccn1 | 208 to 209 °C
54 | O=C(SCCC(=O)N1C(c2cccs2)SC[C@H]1C(=O)O)c1ccccc1 (some centres not stated) | 141 to 143 °C
55 | O=C(Cl)CN1C(=O)c2ccc([N+](=O)[O-])cc2C1=O | 129 to 130 °C
56 | Cc1c(N2CC[C@@H](C3(NC(=O)OC(C)(C)C)CC3)C2)cc(O)c2c(=O)c(C(=O)O)cn([C@@H]3C[C@@H]3F)c12 | 203 to 206 °C
57 | CS(=O)(=O)c1ccc(-c2oc3ccccc3c(=O)c2-c2ccc(F)cc2)cc1 | 98 to 100 °C
58 | CC(=O)c1c(S(=O)(=O)C(F)(F)F)c(C#N)nn1-c1c(Cl)cc(C(F)(F)F)cc1Cl | 161 °C
59 | C/C(=C\c1ccc(OC(C)C)cc1Oc1ncc(C(F)(F)F)cc1Cl)C(=O)NS(=O)(=O)NCc1cnc(C)cn1 | 126 to 128 °C
60 | CCCCCCCSc1nnc(N)s1 | 112 to 113 °C
61 | COc1ccccc1CN[C@H]1CCCN(C)[C@H]1c1ccccc1 (relative stereo) | 58 °C
62 | CNC1CCC2C3CCc4cc(OC)ccc4C3CCC12C (configuration not stated) | 136 to 137 °C
63 | Cc1sc2c(Br)c3ccccc3c(-c3ccc(O)c([N+](=O)[O-])c3)c2c1C | 183 to 185 °C
64 | O=C(O)c1ccc(C=Cc2ccc(C(=O)O)cc2)cc1 | > 280 °C
65 | COc1ccc2ccc(N3C(=O)c4ccccc4C3OCC(=O)NCCC(C)C)nc2n1 (configuration not stated) | 136 °C
66 | O=C(O)C=Cc1cccc2nnsc12 | 199 to 202 °C
67 | CCCCN=C1c2ccccc2CCc2c1nc1c(cnn1CC)c2NCCCC | 124 to 125 °C
68 | O=C(O)c1nc2cc(N3CCN(c4ccc(F)cc4)CC3)c([N+](=O)[O-])cc2[nH]c1=O | 236 to 238 °C
69 | COc1ccc(O)c(Cc2cccc(C(F)(F)F)c2)c1 | 188 to 190 °C
70 | Cn1nc(-c2ccncc2)c2ccccc2c1=O | 173 to 174 °C
71 | O=C1Nc2cc3c(cc2SC1CCCBr)OCO3 (configuration not stated) | 168 to 169 °C
72 | COc1cc(N)ccc1C(O)c1cc(C)ccn1 (configuration not stated) | 114 to 117 °C
